These results are taken from PMC11009625, “Antibiotic class with potent in vivo activity targeting lipopolysaccharide synthesis in Gram-negative bacteria” (Proceedings of the National Academy of Sciences of the …, 2024).

The MIC is the lowest concentration that inhibits growth of the organism.

SMILES strings stand for the structures.

What all share (format): cell-based
Data set [1] concerns K. pneumoniae ATCC 13883 (EN0006) and selected mutants. Kind of data set: MIC of mutants from frequency of resistance experiments. The conditions noted are these: for MIC EN0006: ATCC 13883 parent; for MIC EN0006 / MIC CH10219: lpxH wild-type; for MIC CH10218: lpxH F128L; for MIC CH10218 / MIC CH10220 / MIC CH10221 / MIC CH10219: selected against EBL-3647; for MIC CH10206 / MIC CH10220: lpxH F141S; for MIC CH10206 / MIC CH10205 / MIC CH10207: selected against EBL-3599; for MIC CH10205 / MIC CH10207 / MIC CH10221: lpxH R80H; for MIC CH10219: ramR A40V. The protocol: (§1) Minimum inhibitory concentration (MIC) values were determined according to the Clinical Laboratory Standards Institute guidelines. Frequency of resistance was determined by plating ~5 × 10^8 bacterial cells on agar-solidified media plates containing test compound at concentrations corresponding to four times the measured solid-media MIC of the strains. Colonies were counted after 24 h, restreaked onto media containing the same concentration of compound, and the MIC remeasured against the assayed compound. Genomic DNA from isolated clones was sequenced by paired-end sequencing on an Illumina MiSeq device. Complete experimental details available in SI Appendix. […]
Minimum inhibitory concentration (MIC) determination. Broth microdilution and agar dilution MIC assays were conducted according to CLSI guidelines (M07-2012). Appropriate inoculation suspension density was assessed using a Sensititre Nephelometer with a Sensititre 0.5 […]
McFarland Standard. […]
Frequency of Resistance. Frequency of resistance was assessed by spread plating between […] cfu of a freshly-grown culture of the strain of interest on plates containing a concentration of compound corresponding to 4 times the MIC of the strain (as determined by agar-dilution MIC). Serial dilutions of the same cultures were plated on non-selective media to determine the number of cells plated. The frequency of resistance was determined by dividing the number of colonies obtained on the selective plates after 24 hours of growth by the calculated total population plated. Typically 4 independently grown cultures were used to initiate 4 separate experiments, and the total combined number of obtained colonies and plated populations were used for calculations. Isolated colonies from selection plates were re-streaked on an additional plate containing the same concentration of compound used in the original selection. Clones were saved at -80 °C for subsequent analysis.
Whole-genome sequencing and data analysis. Genomic DNA of selected clones was prepared using an Epicentre MasterPure Complete DNA Purification Kit. Whole-genome sequencing libraries were prepared using an Illumina Nextera XT Library Preparation Kit. The libraries were sequenced using an Illumina MiSeq device with a V3 600-cycle reagent kit. Whole-genome sequencing data was analyzed using CLC Genomics Workbench Version 11. To determine the genotype of MDR strains from the ENABLE strain collection, de novo assembled contigs were […]

For data set [2], the system named is K. pneumoniae (EN124). Kind of data set: MIC of K. pneumoniae strain used in the in vivo efficacy studies. The note with it: Klebsiella pneumoniae. The procedure:
(§2) Minimum inhibitory concentration (MIC) values were determined according to the Clinical Laboratory Standards Institute guidelines. Frequency of resistance was determined by plating ~5 × 10^8 bacterial cells on agar-solidified media plates containing test compound at concentrations corresponding to four times the measured solid-media MIC of the strains. Colonies were counted after 24 h, restreaked onto media containing the same concentration of compound, and the MIC remeasured against the assayed compound. Genomic DNA from isolated clones was sequenced by paired-end sequencing on an Illumina MiSeq device. Complete experimental details available in SI Appendix.
(§3) Lantmännen) and water. […]
(§4) Safety testing in mice. […] Mice were extensively observed and toxicity signs were scored after 0-2, 5, […]
(§5) Plasma sample analysis by UPLC/MS/MS. Concentrations of EBL-3599 and EBL-3647 in mouse blood plasma were measured by liquid chromatography tandem mass spectrometry (LC/MS/MS) in positive electrospray ionization (ESI+) in multi reaction monitoring (MRM) mode. […]
(§6) A sample volume of 20 μL was transferred into a plastic tube and mixed with 300μL acetonitrile/methanol mixture (3:1, v/v) to precipitate proteins. […] Bioanalysis of samples from each mouse were measured in duplicate and the results averaged. […]

The subject of data set [3] is E. coli (EN122). Kind of data set: MIC of E. coli strain used in the in vivo efficacy studies. The conditions noted are these: Escherichia coli. The protocol: as §2, §3, §4, §5, §6
For data set [4], the system named is efflux-defective E. coli. Kind of data set: Frequency of resistance, efflux-defective E. coli. The conditions noted are these: not told. The protocol: as §1
Minimum inhibitory concentration (MIC) determination. […] Appropriate inoculation suspension density was assessed using a Sensititre Nephelometer with a Sensititre 0.5 […]
Frequency of Resistance. Frequency of resistance was assessed by spread plating between […] cfu of a freshly-grown culture of the strain of interest on plates containing a concentration of compound corresponding to 4 times the MIC of the strain (as determined by agar-dilution MIC). […] The frequency of resistance was determined by dividing the number of colonies obtained on the selective plates after 24 hours of growth by the calculated total population plated. […]

As for `Cc1cc(C#N)nc(N2CCN(S(=O)(=O)c3ccc(NC(=O)c4cc(CNCCCN)ccc4N(C)S(C)(=O)=O)cc3)CC2)n1.Cl.Cl` [EBL-3599], in data set [1], the MIC EN0006 turned out to be 1 µg/mL, the MIC CH10218 was determined as 64 µg/mL, the MIC CH10206 was > 64 µg/mL and the MIC CH10220 is > 64 µg/mL. In data set [1], the MIC CH10205 turned out to be 32 µg/mL, the MIC CH10207 worked out at 32 µg/mL, the MIC CH10221 was > 64 µg/mL and the MIC CH10219 came out at 8 µg/mL.
For `Cc1cc(C#N)nc(N2CCN(S(=O)(=O)c3ccc(NC(=O)c4cc(CN5CC(CN)C5)ccc4N(C)S(C)(=O)=O)cc3)CC2)n1` [EBL-3647], in data set [2], the MIC turned out to be 4 µg/mL. Besides, in data set [1], the MIC EN0006 was determined as 1 µg/mL, the MIC CH10218 was 32 µg/mL, the MIC CH10206 was > 64 µg/mL and the MIC CH10220 is > 64 µg/mL. Also, in data set [1], the MIC CH10205 was 32 µg/mL, the MIC CH10207 came out at 32 µg/mL, the MIC CH10221 was > 64 µg/mL and the MIC CH10219 came out at 8 µg/mL. Further, in data set [3], the minimal inhibitory concentration (MIC) was found to be 4 µg/mL.
Take `CN(c1ccccc1C(=O)Nc1ccc(S(=O)(=O)N2CCN(c3cccc(C(F)(F)F)c3)CC2)cc1)S(C)(=O)=O` [JEDI-1444]: the “Frequency of resistance in efflux-defective E. coli” value in data set [4] is “low frequency of resistance”.
